From patent US20220088016A1, “CANCER TREATMENT USING MULTI-TARGETED KINASE INHIBITOR IN COMBINATION OF PROTEIN KINASE BIOMARKERS” (ZHEJIANG CROWNMAB BIOTECH CO. LTD., priority 2019, published 2022)

Columns and labels:
ADCK3 = ADCK3 (Homo sapiens, UniProt Q8NI60); test: Kinase profiling; format: binding; conditions: read-out: % Ctrl @ 1000 nM
AURKA = AURKA (Homo sapiens, UniProt O14965); test: Kinase profiling; format: binding; conditions: read-out: % Ctrl @ 1000 nM
CAMK1D = CAMK1D (Homo sapiens, UniProt Q8IU85); test: Kinase profiling; format: binding; conditions: read-out: % Ctrl @ 1000 nM
CHEK1 = CHEK1 (Homo sapiens, UniProt O14757); test: Kinase profiling; format: binding; conditions: read-out: % Ctrl @ 1000 nM
CLK3 = CLK3 (Homo sapiens, UniProt P49761); test: Kinase profiling; format: binding; conditions: read-out: % Ctrl @ 1000 nM
CSNK1D = CSNK1D (Homo sapiens, UniProt P48730); test: Kinase profiling; format: binding; conditions: read-out: % Ctrl @ 1000 nM
DDR2 = DDR2 (Homo sapiens, UniProt Q16832); test: Kinase profiling; format: binding; conditions: read-out: % Ctrl @ 1000 nM
EIF2AK1 = EIF2AK1 (Homo sapiens, UniProt Q9BQI3); test: Kinase profiling; format: binding; conditions: read-out: % Ctrl @ 1000 nM
EPHA4 = EPHA4 (Homo sapiens, UniProt P54764); test: Kinase profiling; format: binding; conditions: read-out: % Ctrl @ 1000 nM
ERK1 = ERK1 (Homo sapiens, UniProt P27361); test: Kinase profiling; format: binding; conditions: read-out: % Ctrl @ 1000 nM
FGFR1 = FGFR1 (Homo sapiens, UniProt P11362); test: Kinase profiling; format: binding; conditions: read-out: % Ctrl @ 1000 nM
FLT3 (ITD, D835V) = test: Kinase profiling; format: binding
GRK3 = GRK3 (Homo sapiens, UniProt P35626); test: Kinase profiling; format: binding; conditions: read-out: % Ctrl @ 1000 nM
HIPK2 = HIPK2 (Homo sapiens, UniProt Q9H2X6); test: Kinase profiling; format: binding; conditions: read-out: % Ctrl @ 1000 nM
IRAK3 = IRAK3 (Homo sapiens, UniProt Q9Y616); test: Kinase profiling; format: binding; conditions: read-out: % Ctrl @ 1000 nM
KIT-autoinhibited = KIT-autoinhibited (Homo sapiens, UniProt P10721); test: Kinase profiling; format: binding; conditions: read-out: % Ctrl @ 1000 nM
LOK = LOK (Homo sapiens, UniProt O94804); test: Kinase profiling; format: binding; conditions: read-out: % Ctrl @ 1000 nM
MARK1 = MARK1 (Homo sapiens, UniProt Q9P0L2); test: Kinase profiling; format: binding; conditions: read-out: % Ctrl @ 1000 nM
MST4 = biological target: T1, MST4 (Homo sapiens, UniProt Q9P289); test: Kinase profiling; format: binding; conditions: read-out: % Ctrl @ 1000 nM
T1 construct: T7 phage fusion (said for most assays); made in house

MYO3B = biological target: T2, MYO3B (Homo sapiens, UniProt Q8WXR4); test: Kinase profiling; format: binding; conditions: read-out: % Ctrl @ 1000 nM
T2 construct: T7 phage fusion (said for most assays); made in house

p38-alpha = p38-alpha (Homo sapiens, UniProt Q16539); test: Kinase profiling; format: binding; conditions: read-out: % Ctrl @ 1000 nM
PDPK1 = PDPK1 (Homo sapiens, UniProt O15530); test: Kinase profiling; format: binding; conditions: read-out: % Ctrl @ 1000 nM
PHKG2 = PHKG2 (Homo sapiens, UniProt P15735); test: Kinase profiling; format: binding; conditions: read-out: % Ctrl @ 1000 nM
PIK3CA (E542K) = PIK3CA (E542K) (Homo sapiens, UniProt P42336, E542K); test: Kinase profiling; format: binding; conditions: read-out: % Ctrl @ 1000 nM
PIM3 = PIM3 (Homo sapiens, UniProt Q86V86); test: Kinase profiling; format: binding; conditions: read-out: % Ctrl @ 1000 nM
PKNB (M.tuberculosis) = PKNB (M.tuberculosis) (Mycobacterium tuberculosis, UniProt P9WI81); test: Kinase profiling; format: binding; conditions: read-out: % Ctrl @ 1000 nM
PRKX = PRKX (Homo sapiens, UniProt P51817); test: Kinase profiling; format: binding; conditions: read-out: % Ctrl @ 1000 nM
QSK = QSK (Homo sapiens, UniProt Q9Y2K2); test: Kinase profiling; format: binding; conditions: read-out: % Ctrl @ 1000 nM
RIPK5 = RIPK5 (Homo sapiens, UniProt Q6XUX3); test: Kinase profiling; format: binding; conditions: read-out: % Ctrl @ 1000 nM
ROCK1 = ROCK1 (Homo sapiens, UniProt Q13464); test: Kinase profiling; format: binding; conditions: read-out: % Ctrl @ 1000 nM
SBK1 = SBK1 (Homo sapiens, UniProt Q52WX2); test: Kinase profiling; format: binding; conditions: read-out: % Ctrl @ 1000 nM
SGK = SGK (Homo sapiens, UniProt O00141); test: Kinase profiling; format: binding; conditions: read-out: % Ctrl @ 1000 nM
SGK3 = SGK3 (Homo sapiens, UniProt Q96BR1); test: Kinase profiling; format: binding; conditions: read-out: % Ctrl @ 1000 nM
STK36 = STK36 (Homo sapiens, UniProt Q9NRP7); test: Kinase profiling; format: binding; conditions: read-out: % Ctrl @ 1000 nM
TGFBR1 = TGFBR1 (Homo sapiens, UniProt P36897); test: Kinase profiling; format: binding; conditions: read-out: % Ctrl @ 1000 nM
YES = YES (Homo sapiens, UniProt P07947); test: Kinase profiling; format: binding; conditions: read-out: % Ctrl @ 1000 nM
M-NFS-60 cells = test: Proliferation of M-NFS-60 cells (CTG assay); format: cell-based, mouse; conditions: M-NFS-60 (CSF-1 dependent), 3 days
Experimental: Two syngeneic cell lines M-NFS-60 and RAW264.7 and engineered BaF3 hCSFIR cell line were starved and then tested with CBT-102 and other test articles for 3 days in the temperature of 37° C., 5% CO2 and 95% humidity. The cell viability was then detected using CTG assay. The software of GraphPad Prism was used to calculate IC50.
CSF-1 dependent mouse myeloid M-NFS-60 cells were employed as target cells while a CSF-1 independent cell line Raw 264.7 was used as a negative control. In addition to CBT-102, the study also included 3 CSF-1R inhibitors: GW2580, BLZ945 and Pexidartinib.

T2 sequence (Q8WXR4 whole entry, the tested form may be a part): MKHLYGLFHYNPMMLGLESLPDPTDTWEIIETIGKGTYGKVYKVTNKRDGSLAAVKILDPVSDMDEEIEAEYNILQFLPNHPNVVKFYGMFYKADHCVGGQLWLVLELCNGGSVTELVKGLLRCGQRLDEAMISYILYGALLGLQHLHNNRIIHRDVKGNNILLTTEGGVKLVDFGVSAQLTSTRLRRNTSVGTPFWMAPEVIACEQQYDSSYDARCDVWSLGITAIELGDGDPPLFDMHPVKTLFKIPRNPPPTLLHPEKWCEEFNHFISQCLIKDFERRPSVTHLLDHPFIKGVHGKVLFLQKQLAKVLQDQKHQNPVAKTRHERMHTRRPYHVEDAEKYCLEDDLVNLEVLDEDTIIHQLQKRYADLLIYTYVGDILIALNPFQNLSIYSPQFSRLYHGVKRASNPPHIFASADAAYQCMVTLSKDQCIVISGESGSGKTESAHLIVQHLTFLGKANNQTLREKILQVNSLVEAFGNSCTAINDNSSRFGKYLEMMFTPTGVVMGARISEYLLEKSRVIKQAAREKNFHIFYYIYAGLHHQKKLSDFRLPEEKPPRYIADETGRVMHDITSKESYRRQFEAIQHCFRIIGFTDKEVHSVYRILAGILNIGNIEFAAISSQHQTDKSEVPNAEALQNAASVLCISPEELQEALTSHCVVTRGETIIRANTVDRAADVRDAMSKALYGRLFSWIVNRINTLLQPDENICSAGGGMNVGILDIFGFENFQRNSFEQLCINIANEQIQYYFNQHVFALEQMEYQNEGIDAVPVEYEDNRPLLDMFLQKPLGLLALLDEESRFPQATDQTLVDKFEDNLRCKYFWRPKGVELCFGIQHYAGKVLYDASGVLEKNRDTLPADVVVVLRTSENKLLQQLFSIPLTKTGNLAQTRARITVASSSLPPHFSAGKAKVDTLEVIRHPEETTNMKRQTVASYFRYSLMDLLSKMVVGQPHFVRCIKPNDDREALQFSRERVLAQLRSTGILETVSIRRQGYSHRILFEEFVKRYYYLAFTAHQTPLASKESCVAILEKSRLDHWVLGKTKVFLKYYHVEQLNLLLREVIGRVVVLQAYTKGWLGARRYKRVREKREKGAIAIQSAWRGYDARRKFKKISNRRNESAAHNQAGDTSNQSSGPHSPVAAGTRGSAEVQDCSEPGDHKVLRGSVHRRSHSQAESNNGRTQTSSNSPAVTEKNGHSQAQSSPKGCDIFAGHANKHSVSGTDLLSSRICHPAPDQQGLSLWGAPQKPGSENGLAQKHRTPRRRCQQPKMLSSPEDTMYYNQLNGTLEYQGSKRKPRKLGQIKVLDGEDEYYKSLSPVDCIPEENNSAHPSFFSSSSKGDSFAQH
Chain of SGK (O00141 whole entry): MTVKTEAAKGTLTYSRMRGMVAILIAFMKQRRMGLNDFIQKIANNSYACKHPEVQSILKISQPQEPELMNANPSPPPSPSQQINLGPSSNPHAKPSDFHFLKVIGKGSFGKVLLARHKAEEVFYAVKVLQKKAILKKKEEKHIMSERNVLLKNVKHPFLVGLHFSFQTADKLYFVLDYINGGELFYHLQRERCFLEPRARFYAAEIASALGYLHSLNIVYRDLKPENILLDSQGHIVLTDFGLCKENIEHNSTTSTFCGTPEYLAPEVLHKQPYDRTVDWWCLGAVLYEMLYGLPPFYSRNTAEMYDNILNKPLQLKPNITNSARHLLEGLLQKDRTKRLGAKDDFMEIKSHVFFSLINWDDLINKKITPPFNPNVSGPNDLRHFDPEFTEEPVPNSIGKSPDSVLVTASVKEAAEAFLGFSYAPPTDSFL
Chain of RIPK5 (Q6XUX3 whole entry): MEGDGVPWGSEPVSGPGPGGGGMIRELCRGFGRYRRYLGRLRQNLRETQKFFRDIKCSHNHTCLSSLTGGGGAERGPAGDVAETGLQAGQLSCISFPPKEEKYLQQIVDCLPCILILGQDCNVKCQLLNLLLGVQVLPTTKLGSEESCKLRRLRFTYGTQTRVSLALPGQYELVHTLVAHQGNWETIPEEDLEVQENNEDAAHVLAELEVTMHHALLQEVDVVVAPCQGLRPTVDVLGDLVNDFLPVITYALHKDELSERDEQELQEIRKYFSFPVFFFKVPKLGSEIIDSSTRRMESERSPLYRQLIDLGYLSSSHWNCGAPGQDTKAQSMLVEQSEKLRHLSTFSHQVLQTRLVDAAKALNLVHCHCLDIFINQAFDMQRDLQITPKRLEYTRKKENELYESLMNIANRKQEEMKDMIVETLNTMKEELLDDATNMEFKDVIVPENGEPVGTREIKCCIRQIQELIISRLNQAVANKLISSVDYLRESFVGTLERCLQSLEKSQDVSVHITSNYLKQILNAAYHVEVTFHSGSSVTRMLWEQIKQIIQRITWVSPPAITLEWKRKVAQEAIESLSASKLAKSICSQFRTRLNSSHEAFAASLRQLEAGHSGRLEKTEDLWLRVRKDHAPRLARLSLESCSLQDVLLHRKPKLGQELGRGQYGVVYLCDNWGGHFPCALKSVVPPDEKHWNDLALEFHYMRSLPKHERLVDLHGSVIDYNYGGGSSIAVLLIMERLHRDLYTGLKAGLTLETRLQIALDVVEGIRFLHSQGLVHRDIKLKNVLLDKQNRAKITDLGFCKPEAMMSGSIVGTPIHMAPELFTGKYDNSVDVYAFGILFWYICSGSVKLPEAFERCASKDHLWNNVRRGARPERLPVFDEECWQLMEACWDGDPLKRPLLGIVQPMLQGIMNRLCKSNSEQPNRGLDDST
Chain of PRKX (P51817 whole entry): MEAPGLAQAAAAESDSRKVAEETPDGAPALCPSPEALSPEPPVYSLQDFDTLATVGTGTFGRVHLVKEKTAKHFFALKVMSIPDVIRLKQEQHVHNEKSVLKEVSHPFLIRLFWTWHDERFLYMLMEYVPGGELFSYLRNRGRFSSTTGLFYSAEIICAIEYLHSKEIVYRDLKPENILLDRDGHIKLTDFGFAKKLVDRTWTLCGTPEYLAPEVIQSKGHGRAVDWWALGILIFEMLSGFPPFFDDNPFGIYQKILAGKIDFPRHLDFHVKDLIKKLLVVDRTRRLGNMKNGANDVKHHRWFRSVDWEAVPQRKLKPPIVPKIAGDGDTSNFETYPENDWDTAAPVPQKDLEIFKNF
Chain of PDPK1 (O15530 whole entry): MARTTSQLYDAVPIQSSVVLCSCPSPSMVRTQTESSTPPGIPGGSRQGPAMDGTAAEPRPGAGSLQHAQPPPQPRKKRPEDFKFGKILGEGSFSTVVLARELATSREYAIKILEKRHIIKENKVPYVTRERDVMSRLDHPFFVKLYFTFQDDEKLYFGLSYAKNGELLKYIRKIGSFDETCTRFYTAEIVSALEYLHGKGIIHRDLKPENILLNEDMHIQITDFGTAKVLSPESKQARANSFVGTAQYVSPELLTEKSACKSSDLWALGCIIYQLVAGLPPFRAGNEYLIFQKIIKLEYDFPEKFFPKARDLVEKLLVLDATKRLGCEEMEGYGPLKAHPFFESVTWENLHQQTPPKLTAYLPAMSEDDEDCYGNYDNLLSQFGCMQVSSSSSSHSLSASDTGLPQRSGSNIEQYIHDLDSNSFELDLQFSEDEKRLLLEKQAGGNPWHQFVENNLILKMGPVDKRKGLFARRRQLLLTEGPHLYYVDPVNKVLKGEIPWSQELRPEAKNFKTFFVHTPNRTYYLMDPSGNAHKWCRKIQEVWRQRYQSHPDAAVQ
Chain of CLK3 (P49761 whole entry): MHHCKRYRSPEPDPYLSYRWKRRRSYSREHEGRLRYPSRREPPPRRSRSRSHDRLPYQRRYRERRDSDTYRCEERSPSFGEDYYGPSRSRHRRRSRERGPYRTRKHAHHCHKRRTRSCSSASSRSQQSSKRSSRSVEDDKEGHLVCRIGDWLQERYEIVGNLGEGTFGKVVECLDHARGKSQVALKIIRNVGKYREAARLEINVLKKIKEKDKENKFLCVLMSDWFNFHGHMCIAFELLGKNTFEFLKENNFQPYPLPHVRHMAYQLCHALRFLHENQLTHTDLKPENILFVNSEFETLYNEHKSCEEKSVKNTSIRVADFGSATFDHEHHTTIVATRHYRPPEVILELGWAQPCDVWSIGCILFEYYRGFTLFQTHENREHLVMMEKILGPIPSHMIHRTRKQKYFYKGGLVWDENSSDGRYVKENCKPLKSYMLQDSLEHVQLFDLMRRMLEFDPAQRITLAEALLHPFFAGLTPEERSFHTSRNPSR
Chain of CSNK1D (P48730 whole entry): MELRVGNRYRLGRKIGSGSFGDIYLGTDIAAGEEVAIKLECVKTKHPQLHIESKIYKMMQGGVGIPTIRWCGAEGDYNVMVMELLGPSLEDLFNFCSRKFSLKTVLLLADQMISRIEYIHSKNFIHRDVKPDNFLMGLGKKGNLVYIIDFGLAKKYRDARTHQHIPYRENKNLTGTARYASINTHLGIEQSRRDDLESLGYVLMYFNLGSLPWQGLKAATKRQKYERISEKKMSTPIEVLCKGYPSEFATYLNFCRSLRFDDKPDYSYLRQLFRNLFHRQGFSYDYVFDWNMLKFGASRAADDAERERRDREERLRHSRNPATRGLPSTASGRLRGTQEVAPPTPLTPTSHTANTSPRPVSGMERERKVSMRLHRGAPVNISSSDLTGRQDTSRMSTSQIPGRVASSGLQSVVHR
Chain of SGK3 (Q96BR1 whole entry): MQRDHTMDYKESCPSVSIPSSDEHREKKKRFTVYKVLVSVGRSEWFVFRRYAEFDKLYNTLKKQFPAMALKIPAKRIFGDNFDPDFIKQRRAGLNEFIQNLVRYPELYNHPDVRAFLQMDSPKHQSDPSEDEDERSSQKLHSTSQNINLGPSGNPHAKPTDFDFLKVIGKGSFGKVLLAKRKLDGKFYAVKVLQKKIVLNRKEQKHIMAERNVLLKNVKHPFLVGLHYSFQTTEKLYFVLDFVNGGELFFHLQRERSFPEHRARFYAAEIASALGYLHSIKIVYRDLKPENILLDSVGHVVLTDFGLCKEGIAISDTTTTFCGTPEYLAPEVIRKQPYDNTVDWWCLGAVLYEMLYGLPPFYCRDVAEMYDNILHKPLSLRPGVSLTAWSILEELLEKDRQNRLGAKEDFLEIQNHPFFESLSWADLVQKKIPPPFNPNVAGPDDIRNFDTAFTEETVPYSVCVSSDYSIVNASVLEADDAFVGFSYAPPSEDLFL

Which results are given for `Cc1cc(Oc2cc(NC(=O)C3CC3)ncn2)ccc1NC(=O)Nc1ccc(Cl)c(C(F)(F)F)c1` [CBT-102]?
remaining activity at 1 µM (ADCK3): 100%; remaining activity at 1 µM (AURKA): 86%; remaining activity at 1 µM (CAMK1D): 81%; remaining activity at 1 µM (CHEK1): 100%; remaining activity at 1 µM (CLK3): 100%; remaining activity at 1 µM (CSNK1D): 77%; remaining activity at 1 µM (DDR2): 1.1%; remaining activity at 1 µM (EIF2AK1): 99%; remaining activity at 1 µM (EPHA4): 49%; remaining activity at 1 µM (ERK1): 91%; remaining activity at 1 µM (FGFR1): 61%; % Ctrl @ 1000 nM (FLT3 (ITD, D835V)): 98%; remaining activity at 1 µM (GRK3): 97%; remaining activity at 1 µM (HIPK2): 90%; remaining activity at 1 µM (IRAK3): 100%; remaining activity at 1 µM (KIT-autoinhibited): 58%; remaining activity at 1 µM (LOK): 0.1%; remaining activity at 1 µM (MARK1): 100%; remaining activity at 1 µM (MST4): 100%; remaining activity at 1 µM (MYO3B): 90%; remaining activity at 1 µM (p38-alpha): 0%; remaining activity at 1 µM (PDPK1): 100%; remaining activity at 1 µM (PHKG2): 87%; remaining activity at 1 µM (PIK3CA (E542K)): 96%; remaining activity at 1 µM (PIM3): 98%; remaining activity at 1 µM (PKNB (M.tuberculosis)): 100%; remaining activity at 1 µM (PRKX): 93%; remaining activity at 1 µM (QSK): 91%; remaining activity at 1 µM (RIPK5): 100%; remaining activity at 1 µM (ROCK1): 100%; remaining activity at 1 µM (SBK1): 92%; remaining activity at 1 µM (SGK): 100%; remaining activity at 1 µM (SGK3): 82%; remaining activity at 1 µM (STK36): 2.5%; remaining activity at 1 µM (TGFBR1): 100%; remaining activity at 1 µM (YES): 55%; IC50 (M-NFS-60 cells): 343 nM; IC50 (M-NFS-60 cells; Mus musculus, 72 h): 631 nM
